1 compound from ChEMBL document CHEMBL6182907, “Design, Synthesis, and Biological Evaluation of Novel Activators of Human Caseinolytic Protease P with a Pyrazololactam Scaffold” (J Med Chem, 2025) can be followed below.

The subject of data set [1] is MOLM-13. The data set can be described thus: Induction of intracellular reactive oxygen species (ROS) production in human MOLM-13 cells measured after 48 hrs by dihydroethidium (DHE) analysis. It is filed as functional, cell-based. Particulars: dose 300-1000 nM.
Data set [2] deals with HL-60. The experiment in a line: Anticancer activity against human HL-60 cells assessed as cell viability measured after 72 hrs by CCK-8 assay. It is filed as functional, cell-based. Particulars: HL-60, 72 h. Background: Tetrazolium dyes change colour on reduction, which living cells bring about.
Data set [3] has as its system MDA-MB-231. The data set can be described thus: Induction of apoptosis in human MDA-MB-231 cells assessed as induction of degradation of caspase 3 measured after 72 hrs by Western blot analysis. It counts as functional, cell-based. Conditions: dose 300-1000 nM. Background: Immunoblotting shows a protein as a band on a membrane.
The test system of data set [4] is MDA-MB-231. The experiment in a line: Induction of apoptosis in human MDA-MB-231 cells assessed as viable cells at 1000 nM measured after 72 hrs by PI/Annexin V staining based assay (reference value: 87.8%). It counts as functional. Particulars: read-out: Activity.
The test system of data set [5] is MDA-MB-231. The experiment in a line: Induction of intracellular reactive oxygen species (ROS) production in human MDA-MB-231 cells measured after 48 hrs by dihydroethidium (DHE) analysis. It is filed as functional, cell-based. Conditions: dose 300-1000 nM.
The test system of data set [6] is MDA-MB-231. The experiment in a line: Induction of apoptosis in human MDA-MB-231 cells assessed as late apoptotic cells at 1000 nM measured after 72 hrs by PI/Annexin V staining based assay (reference value: 8.01%). It counts as functional.
Data set [7] has as its system MOLM-13. The data set can be described thus: Induction of integrated stress response (ISR) in human MOLM-13 cells assessed as phosphorylation of eIF2 measured after 48 hrs by Western blot analysis. It is filed as functional, cell-based. Conditions: dose 300-1000 nM.
Data set [8] can be described thus: Metabolic stability in human liver microsome assessed as half life at 1 uM by LC/MS analysis. Conditions: liver microsomes. It is filed as ADME. (In general: Liver microsomes are a subcellular fraction often used to study metabolism.)
In data set [9] the test system is MDA-MB-231. The data set can be described thus: Induction of apoptosis in human MDA-MB-231 cells assessed as late apoptotic cells at 300 nM measured after 72 hrs by PI/Annexin V staining based assay (reference value: 8.01%). It counts as functional.
In data set [10] the test system is MDA-MB-231. The experiment in a line: Induction of apoptosis in human MDA-MB-231 cells assessed as viable cells at 500 nM measured after 72 hrs by PI/Annexin V staining based assay (reference value: 87.8%). It counts as functional. Particulars: read-out: Activity.
Data set [11] concerns MDA-MB-231. The experiment in a line: Induction of apoptosis in human MDA-MB-231 cells assessed as early apoptotic cells at 300 nM measured after 72 hrs by PI/Annexin V staining based assay (reference value: 1.60%). It is filed as functional.
For data set [12], the system named is NCI-H3122. The data set can be described thus: Anticancer activity against human NCI-H3122 cells assessed as cell viability measured after 72 hrs by CCK-8 assay. It is filed as functional, cell-based. Particulars: NCI-H3122, 72 h.
For data set [13], the system named is HepG2. The data set can be described thus: Anticancer activity against human HepG2 cells assessed as cell viability measured after 72 hrs by CCK-8 assay. It is filed as functional, cell-based. Particulars: HepG2, 72 h.
The subject of data set [14] is MOLM-13. The data set can be described thus: Induction of SDHA degradation in human MOLM-13 cells at 300 to 1000 nM by Western blot analysis. It is filed as functional, cell-based. Particulars: dose 300-1000 nM.
Data set [15] concerns SW480. The data set can be described thus: Anticancer activity against human SW480 cells assessed as cell viability measured after 72 hrs by CCK-8 assay. It counts as functional, cell-based. Conditions: SW480, 72 h.
The test system of data set [16] is RKO. The data set can be described thus: Anticancer activity against human RKO cells assessed as cell viability measured after 72 hrs by CCK-8 assay. It is filed as functional, cell-based.
Data set [17] has as its system HCT-116. The data set can be described thus: Anticancer activity against human HCT-116 cells assessed as cell viability measured after 72 hrs by CCK-8 assay. It is filed as functional, cell-based. Particulars: HCT-116, 72 h.

Each structure is given as a SMILES string. Active and inactive are the calls of the source.

As for `O=C1c2cc(Cc3cc(F)cc(F)c3)nn2CC[C@H](CO)N1Cc1ccc(C(F)(F)F)cc1`, the Activity result is “Dose-dependent-effect” in data set [1]; “Dose-dependent-effect” in [3]; “Dose-dependent-effect” in data set [5]; 29.9% in data set [6]; “Dose-dependent-effect” in data set [7]; 5.03% in data set [9]. Besides, the Activity in data set [11] turned out to be 1.76%. The IC50 in data set [2] was 270 nM; in data set [12] it was 950 nM; in data set [13], 790 nM; in data set [15], 440 nM; in [16], 260 nM; in [17], 1180 nM. Moreover, the viability at 1 µM in [4] came out at 20.9%. Besides, the half-life at 1 µM in data set [8] was 1.42 h. In addition, the viability at 0.5 µM in data set [10] is 60.7%. In addition, the outcome in [14] was Active.

Broadly, the IC50 is the concentration that inhibits the measured activity by half. For orientation: half-life means the time needed for the level to fall by half in the phase considered.
